Experimental findings from PubChem BioAssay (NCI) are described below.

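All cell lines were grown in 96-well plates and treated with compound for 48 hours. GI50 is the concentration that inhibits growth by half. The concentration for full growth arrest is given as TGI.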

In the first experiment the test system is EKVX NSCLC. In words: NCI tumour cell line growth inhibition, 48 h.
In the case of `Clc1cccc(NC=Nc2ccc(-c3nc4ccccc4s3)cc2)c1`, the GI50 is 3.97 µM and the TGI is 29.9 µM.

`C[Si](C)(C)c1ccc(CC2(Cc3ccc([Si](C)(C)C)cc3)CCNC2)cc1` returned a TGI of 18.9 µM.

`Cc1cc(C)nc(NS(=O)(=O)c2ccc(NC(=O)c3cccc4c(=O)c5ccccc5[nH]c34)cc2)n1` had a TGI of 86.3 µM.

As for `O=C1c2ccccc2-c2c1c1cc3c(cc1c(=O)n2CCCCl)OCO3`, the GI50 was above 100 µM and the TGI was above 100 µM.

In a further experiment the test system is SK-OV-3 ovarian. In words: NCI tumour cell line growth inhibition, 48 h.
For `Cc1cccc(C(C)(C)C)c1NC(=O)C(=O)Cc1nc2ccccc2s1`, the TGI is above 100 µM.

`CC(=O)OCCc1cccnc1/C=N/O` registered a TGI above 100 µM.

Take `CN1CCCNCCN(CCc2ccccn2)CCCN(C)CC1`: the TGI was above 100 µM.

Take `CC1=C(CCCOC(=O)NCCCl)C2=C(C)C3(CC3)[C@@](C)(O)C(=O)C2=C1`: the GI50 was 2.35 µM and the TGI was found to be 6.46 µM.

In turn, `C[C@]12CCC(=O)C=C1CC[C@@H]1C2CC[C@]2(C)NC(=O)C(C#N)CC12` (some centres undefined) registered a TGI above 100 µM.

Consider `CN=C1NC(=O)/C(=C/c2ccc3ncccc3c2)S1`, for which the GI50 is 7.76 µM and the TGI amounted to 24.8 µM.

Turning to `CC1=C[C@@H]2Cc3occc3C(C)(C)[C@@H]2CC1`, the TGI is above 100 µM.

`O=C(O)c1cc(S(=O)(=O)N=NC=C2c3ccccc3N(O)c3ccccc32)ccc1O` registered a TGI of 92.2 µM.

`O=c1[nH]c(=O)n(C2CC(O)C(CO)O2)cc1C#Cc1c(F)c(F)c(F)c(F)c1F` (centres undefined): the TGI is above 100 µM.

As for `O=S(=O)(O)C(O)/C=C/c1ccccc1` (centres undefined), the TGI is above 100 µM.

For `NS(=O)(=O)c1ccc(-n2nc(-c3ccc(Br)cc3)ccc2=O)cc1`, the GI50 is above 10 µM and the TGI is above 10 µM.

With `S=C1NCCN1C1=Nc2ccccc2CO1`, the GI50 was above 100 µM and the TGI was above 100 µM.

For `COc1ccc(/C=C(/C(=O)O)c2cc(OC)c(OC)c(OC)c2)cc1`, the TGI was above 100 µM.

With `OCc1c(-c2cccc3ccccc23)sc(-c2cccc3ccccc23)c1CO`, the TGI is 29.3 µM.

As to `COc1ccc(-n2cc(-c3ccc(OC)c(OC)c3)[nH]c2=S)cc1Cl`, the GI50 is above 100 µM and the TGI is above 100 µM.

In the case of `Clc1cccc(NC=Nc2ccc(-c3nc4ccccc4s3)cc2)c1`, the GI50 is 31.7 µM and the TGI was above 50 µM.

For the molecule `C[Si](C)(C)c1ccc(CC2(Cc3ccc([Si](C)(C)C)cc3)CCNC2)cc1`, the TGI came to 3.8 µM.

On to `Cc1cc(C)nc(NS(=O)(=O)c2ccc(NC(=O)c3cccc4c(=O)c5ccccc5[nH]c34)cc2)n1`, for which the TGI was found to be 17.1 µM.

As for `Cn1cc(C2=C(c3ccc(OC[C@@H](O)CO)cc3)C(=O)NC2=O)c2ccccc21`, the GI50 is above 25 µM and the TGI was above 25 µM.

On to `O=C1c2ccccc2-c2c1c1cc3c(cc1c(=O)n2CCCCl)OCO3`, for which the GI50 is above 100 µM and the TGI was above 100 µM.

Turning to `COc1nc2c(cc1S(=O)(=O)c1ccccc1)CCc1c-2cnn1-c1ccccc1Cl`, the GI50 was above 100 µM and the TGI is above 100 µM.

Another experiment deals with MOLT-4 leukemia. The experiment is described as follows: NCI tumour cell line growth inhibition, 48 h.
Take `Cc1cccc(C(C)(C)C)c1NC(=O)C(=O)Cc1nc2ccccc2s1`: the TGI is above 100 µM.

In turn, `CC(=O)OCCc1cccnc1/C=N/O` showed a TGI above 100 µM.

In turn, `CCC1CCC2CCCC(C)N12` (centres undefined) showed a TGI above 100 µM.

`CN1CCCNCCN(CCc2ccccn2)CCCN(C)CC1` came in with a TGI above 100 µM.

Take `CC1=C(CCCOC(=O)NCCCl)C2=C(C)C3(CC3)[C@@](C)(O)C(=O)C2=C1`: the GI50 was 5.49 µM and the TGI was above 100 µM.

`C[C@]12CCC(=O)C=C1CC[C@@H]1C2CC[C@]2(C)NC(=O)C(C#N)CC12` (some centres undefined) displayed a TGI above 100 µM.

As for `CN=C1NC(=O)/C(=C/c2ccc3ncccc3c2)S1`, the GI50 was 11.2 µM and the TGI was above 25 µM.

`CC1=C[C@@H]2Cc3occc3C(C)(C)[C@@H]2CC1` showed a TGI of 39.4 µM.

As to `O=C(O)c1cc(S(=O)(=O)N=NC=C2c3ccccc3N(O)c3ccccc32)ccc1O`, the TGI amounted to 45.1 µM.

In turn, `O=c1[nH]c(=O)n(C2CC(O)C(CO)O2)cc1C#Cc1c(F)c(F)c(F)c(F)c1F` (centres undefined) showed a TGI above 100 µM.

`O=S(=O)(O)C(O)/C=C/c1ccccc1` (centres undefined) registered a TGI above 100 µM.

As to `NS(=O)(=O)c1ccc(-n2nc(-c3ccc(Br)cc3)ccc2=O)cc1`, the GI50 was above 10 µM and the TGI is above 10 µM.

With `S=C1NCCN1C1=Nc2ccccc2CO1`, the GI50 is above 100 µM and the TGI was above 100 µM.

Consider `COc1ccc(/C=C(/C(=O)O)c2cc(OC)c(OC)c(OC)c2)cc1`, for which the TGI is above 100 µM.

Molecule `COc1cc2c(cc1O)[C@H](Cc1ccc(Oc3cc(C[C@H]4c5cc(OC)c(OC)cc5CCN4C)ccc3OC)cc1)NCC2` yielded a TGI of 25.5 µM.

Take `OCc1c(-c2cccc3ccccc23)sc(-c2cccc3ccccc23)c1CO`: the TGI stood at 42.2 µM.

Consider `COc1ccc(-n2cc(-c3ccc(OC)c(OC)c3)[nH]c2=S)cc1Cl`, for which the GI50 is 77.4 µM and the TGI is above 100 µM.

The molecule `Cc1cc(C)nc(NS(=O)(=O)c2ccc(NC(=O)c3cccc4c(=O)c5ccccc5[nH]c34)cc2)n1` displayed a TGI above 100 µM.

Regarding `Cn1cc(C2=C(c3ccc(OC[C@@H](O)CO)cc3)C(=O)NC2=O)c2ccccc21`, the GI50 was above 25 µM and the TGI is above 25 µM.

As for `O=C1c2ccccc2-c2c1c1cc3c(cc1c(=O)n2CCCCl)OCO3`, the GI50 was 35 µM and the TGI is above 100 µM.

As to `COc1nc2c(cc1S(=O)(=O)c1ccccc1)CCc1c-2cnn1-c1ccccc1Cl`, the GI50 is 4.76 µM and the TGI was above 100 µM.

Another experiment concerns SK-MEL-28 melanoma. The experiment is described as follows: NCI tumour cell line growth inhibition, 48 h.
Molecule `Cc1cccc(C(C)(C)C)c1NC(=O)C(=O)Cc1nc2ccccc2s1` came in with a TGI above 100 µM.

Molecule `CC(=O)OCCc1cccnc1/C=N/O` registered a TGI above 100 µM.

Turning to `CCC1CCC2CCCC(C)N12` (centres undefined), the TGI is above 100 µM.

`CN1CCCNCCN(CCc2ccccn2)CCCN(C)CC1` showed a TGI above 100 µM.
